Data: EP0412158A1, “ONCOSTATIC DRUG” (priority 1987, dated 1988)
Like-named read-outs stand apart in the source and are kept apart here. Marks after values point to notes of the source that are not given here.

How the values were obtained:
[1] = system: methyl cholanthrene A tumor; test: Antineoplastic activity against transplanted methyl cholanthrene A tumor, evaluation by size of tumor (Examples 1 to 6); assay type: in vivo, female BALB/C mice; conditions: for Average weight of tumor / Number of tumorless mice /total number of mice / Change in body weight / T/control: ip×9; for Change in body weight: body weight 13 days after transplantation; for T/control: tumor weight
Method: By dissolving alkylammonium salt of polymolybdic acid [NH3C3H7(iso)]s [Mo7O24] • 3H2O (Compound A) and other compounds (Compounds B to D) severally in distilled water, aqueous solutions containing the compounds in a fixed concentration of 10 mg/ml were obtained. These aqueous solutions were administered to female BALB/C mice (five weeks old) to which methyl cholanthrene A tumor had been transplanted to test the compounds for antineoplastic activity. To be specific, methyl cholanthrene A was transplanted to the mice in a ratio of 1.0 x 10^5 cells per mouse and the aqueous solutions were continuously administered to the mice by intraperitoneal injection ([…]) for nine days. On elapse of 14 days following the start of the administration, the tumors in the mice were measured. For comparison, mice to which no antineoplastic .drug was administered and mice to which aminonitroso urea was administered were tested by following the procedure described above.

methyl cholanthrene A = test: Methyl cholanthrene A tumor, evaluation by extension of period of survival (Examples 7 to 11); assay type: in vivo, female BALB/C mice; conditions: for Change in body weight: ip×9, D1~D9
Method: The aforementioned compounds, A to D, were severally dissolved in distilled water to obtain aqueous solutions containing the compounds in a fixed concentration of 10 mg/ml. To the female BALB/C mice (five weeks old) to which methyl cholanthrene A had been transplanted in a ratio of 1.0 x 10^5 cells per mouse, […] to determine the mices' periods of survival. For comparison, mice to which no antineoplastic drug was administered and mice to which aminonitroso urea was administered were similarly tested.

human lung cancer (OAT) = assay type: in vivo, female nude mice; conditions: 200 mg/kg ip ×10; for T/C: tumor volume
Method: A patch of human lung cancer [Cancer cells recommended by National Cancer Institute (NCL) of the U.S.A.] (OAT) measuring approximately 2 x 2 mm in area was subcutaneously transplanted to each of female nude mice. An aqueous solution containing the aforementioned heteropoly acid salt (Compound M) in a concentration of 10 mg/ml was administered by intraperitoneal injection (ip) to the mice at a dose of 200 mg/kg once per day for 10 consecutive days following the 12th day of transplantation. For 15 days following the stop of the administration, the volumes of tumor in the mice were measured to evaluate the effect of compound. At ip (x 10), significant suppression of hyperplasia began to appear about the 4th day. Even after completion of the administration 25th day of the transplantation, strong suppression of hyperplasia of cancer of about 50% was maintained. Generally by the NCI standard, a ratio of suppression exceeding 50% is rated as effective. Thus, the compound was confirmed to be effective. For comparison, mice to which no aqueous solution was administered were similarly tested.

With “[NH3C3H7(iso)]s (Mo7O24] • 3H2O [Compound A]” the toxicity ([1]; 200 mg/kg.ip for nine days, judged by increase of body weight, result in words) was “very low toxicity”, the “Average weight of tumor” value ([1]; No. 1, 100 mg/kg) was 451.0 ± 84.7 mg and the “Number of tumorless mice /total number of mice” value ([1]; No. 1, 100 mg/kg) was 1/8. The “Change in body weight” value ([1]; No. 1, 100 mg/kg) was “+2.50 (D1~D9) g”, the T/control ([1]; No. 1, 100 mg/kg) was 0.169 and the “Average weight of tumor” value ([1]; No. 2, 50 mg/kg) was 1182.1±246.8(10) mg. For the same substance, the “Number of tumorless mice /total number of mice” value ([1]; No. 2, 50 mg/kg) was 0/10, the “Change in body weight” value ([1]; No. 2, 50 mg/kg) was “+1.81 g” and the T/control ([1]; No. 2, 50 mg/kg) was 0.414. For the same substance, the “Average weight of tumor” value ([1]; No. 2, 100 mg/kg) was 563.9±99.1(9) mg, the “Number of tumorless mice /total number of mice” value ([1]; No. 2, 100 mg/kg) was 0/10 and the “Change in body weight” value ([1]; No. 2, 100 mg/kg) was “+1.97 g”. The T/control ([1]; No. 2, 100 mg/kg) was 0.198, the “Average weight of tumor” value ([1]; No. 2, 200 mg/kg) was 1211.8±227.6(8) mg and the “Number of tumorless mice /total number of mice” value ([1]; No. 2, 200 mg/kg) was 0/8. The “Change in body weight” value ([1]; No. 2, 200 mg/kg) was “+1.81 g”, the T/control ([1]; No. 2, 200 mg/kg) was 0.424 and the “Average weight of tumor” value ([1]; No. 3, 50 mg/kg) was 1606.0±163.5(8) mg. The “Number of tumorless mice /total number of mice” value ([1]; No. 3, 50 mg/kg) was 0/8, the “Change in body weight” value ([1]; No. 3, 50 mg/kg) was “+1.68 g” and the T/control ([1]; No. 3, 50 mg/kg) was 0.624. For the same substance, the “Average number of days of survival” value (methyl cholanthrene A; No. 1, 100 mg/kg, ip×9) was 42.3 ± 3.0 days, the “Number of toxically killed mice/total number of mice” value (methyl cholanthrene A; No. 1, 100 mg/kg, ip×9) was 0/8 and the “Change in body weight” value (methyl cholanthrene A; No. 1, 100 mg/kg) was “+2.50 g”. For the same substance, the T/control (methyl cholanthrene A; No. 1, 100 mg/kg, ip×9, days of survival) was 163.1, the “Average number of days of survival” value (methyl cholanthrene A; No. 2, 50 mg/kg, ip×9) was 31.8±2.2(8) days and the “Number of toxically killed mice/total number of mice” value (methyl cholanthrene A; No. 2, 50 mg/kg, ip×9) was 0/8. The “Change in body weight” value (methyl cholanthrene A; No. 2, 50 mg/kg) was “+1.68 g”, the T/control (methyl cholanthrene A; No. 2, 50 mg/kg, ip×9, days of survival) was 131.8 and the T/control (methyl cholanthrene A; period of survival) was 63.1%.

For Nas [IMo6O24] • 34H2O [Compound M], the “suppression of hyperplasia of cancer” value (human lung cancer (OAT); after completion of the administration, 25th day) was “about 50%”, the “Volume of tumor, Average value±SE” value (human lung cancer (OAT); day 1) was 457.6±59.3 mm3 and the “Volume of tumor, Average value±SE” value (human lung cancer (OAT); day 2) was 501.7±32.9 mm3. The T/C (human lung cancer (OAT); day 2) was 65.2* %, the “Volume of tumor, Average value±SE” value (human lung cancer (OAT); day 3) was 617.0±165.7 mm3 and the T/C (human lung cancer (OAT); day 3) was 58.3%. The “Volume of tumor, Average value±SE” value (human lung cancer (OAT); day 4) was 610.0±118.1 mm3, the T/C (human lung cancer (OAT); day 4) was 40.9** % and the “Volume of tumor, Average value±SE” value (human lung cancer (OAT); day 5) was 711.2±109.2 mm3. The T/C (human lung cancer (OAT); day 5) was 40.8** %, the “Volume of tumor, Average value±SE” value (human lung cancer (OAT); day 6) was 1003.6±188.6 mm3 and the T/C (human lung cancer (OAT); day 6) was 39.9** %. The “Volume of tumor, Average value±SE” value (human lung cancer (OAT); day 7) was 1033.6±121.5 mm3, the T/C (human lung cancer (OAT); day 7) was 26.0** % and the “Volume of tumor, Average value±SE” value (human lung cancer (OAT); day 8) was 1257.8±166.2 mm3. The T/C (human lung cancer (OAT); day 8) was 27.7** %, the “Volume of tumor, Average value±SE” value (human lung cancer (OAT); day 12) was 2366.6±364.0 mm3 and the T/C (human lung cancer (OAT); day 12) was 41.6** %. For the same substance, the “Volume of tumor, Average value±SE” value (human lung cancer (OAT); day 15) was 4493.2±562.2 mm3, the T/C (human lung cancer (OAT); day 15) was 48.0** % and the “Volume of tumor, Average value±SE” value (human lung cancer (OAT); day 19) was 5735.0±1038.1 mm3. For the same substance, the T/C (human lung cancer (OAT); day 19) was 43.3** %, the “Volume of tumor, Average value±SE” value (human lung cancer (OAT); day 22) was 8493.2±1352.2 mm3 and the T/C (human lung cancer (OAT); day 22) was 54.8** %. The “Volume of tumor, Average value±SE” value (human lung cancer (OAT); day 25) was 9672.6±1638.0 mm3 and the T/C (human lung cancer (OAT); day 25) was 53.2** %.
